Laboratory results from patent publication US4966891A, “Fluorocytidine derivatives” (priority 1987, dated 1990).

Columns and labels:
[1] = words, general knowledge; cited from earlier work
[2] = tested on: Sarcoma 180; assay: Comparative antitumor testing against Sarcoma 180; assay type: in vivo, murine / mice; conditions: p.o. daily × 7, Day 14
Text: (§1) Mice were inoculated subcutaneously with Sarcoma 180, Meth A fibrosarcoma and UV 2237 fibrosarcoma, respectively at Day 0. The mice were then orally administered with the compounds daily for 7 times from Day 1. The efficacy
(§2) was expressed as therapeutic indices (EDmax /ED50) measured at Day 14 after the tumor inoculation, where EDmax is a dose showing maximum inhibition of tumor growth.

[3] = in vivo; conditions: mouse, po
[4] = tested on: Sarcoma 180; assay: Antitumor testing against Sarcoma 180 (oral, s.c. implanted); assay type: in vivo, mice; conditions: Mus musculus, 336 h, day 14, read-out: Inhibition of tumor growth
Procedure: (§3) Sarcoma 180 cells (2×10^6 cells) were implanted subcutaneously into mice (20-22 g) on day 0. The compounds of the present invention were administered daily from day 1 through 7 orally. The animals were sacrificed on day 14 and tumors were excised and weighed. The percent inhibition of tumor growth given in Table 1 below was calculated from the formula:
(§4) T=weight of the tumors from the treated group, C=weight of the tumors from the control group.

[5] = tested on: Meth A fibrosarcoma; assay: Antitumor testing against Meth A fibrosarcoma (oral, s.c. implanted); assay type: in vivo, mice; conditions: Mus musculus, read-out: Inhibition of tumor growth
Procedure: as §3, §4
(§5) Meth A fibrosarcoma cells (2×10^5 cells) were implanted subcutaneously into mice (21-22 g). The testing against Meth A fibrosarcoma and the calculation of the percent inhibition of tumor growth were effected according to a manner analogous to that of the testing against Sarcoma 180.

[6] = tested on: UV 2237 fibrosarcoma; assay: Comparative antitumor testing against UV 2237 fibrosarcoma; assay type: in vivo, murine / mice; conditions: p.o. daily × 7, Day 14
Text: as §1, §2

[7] = tested on: Lewis lung carcinoma; conditions: mouse, in vivo, po
Procedure: Mice were inoculated subcutaneously with Lewis lung carcinoma (10^6 cells) on day 0.
The compounds were administered daily for 14 times from day 1 by the p.o. route. The effective dose (ED50) at which tumor growth was inhibited by 50%, and toxic doses were determined.

[8] = tested on: Meth A fibrosarcoma; assay: Comparative antitumor testing against Meth A fibrosarcoma; assay type: in vivo, murine / mice; conditions: p.o. daily × 7, Day 14
Text: as §1, §2

[9] = Fecal observation on Day 8 and toxicity in the comparative Meth A study; conditions: mouse, in vivo
Procedure: (§6) The comparative study on antitumor activity of a representative compound (Example 3) of the present invention with 5'-deoxy-5-fluorouridine was performed according to a manner analogous to that of the antitumor testing against Meth A fibrosarcoma.

[10] = tested on: Meth A fibrosarcoma; assay: Comparative study on antitumor activity against Meth A fibrosarcoma with 5'-deoxy-5-fluorouridine; assay type: in vivo, mice
Procedure: as §5, §6

SMILES	major and dose limiting toxicities [1]	Therapeutic index (EDmax/ED50), S180 [2]	LD50 [3] [mg/kg]	inhibition in vivo at 1100 µmol/kg ([4]; 1.1 mmole/kg/day × 7, p.o.) [%]	inhibition in vivo at 2200 µmol/kg ([4]; 2.2 mmole/kg/day × 7, p.o.) [%]	inhibition in vivo at 1500 µmol/kg ([5]; 1.5 mmole/kg/day × 7, p.o.) [%]	inhibition in vivo at 3000 µmol/kg ([5]; 3.0 mmole/kg/day × 7, p.o.) [%]	Therapeutic index (EDmax/ED50), UV 2237 [6]	Therapeutic index (toxic dose/ED50): 50% Thymus Shrinkage (C) [7]	Therapeutic index (toxic dose/ED50): 50% reduction No. of bone marrow cells (D) [7]	Therapeutic index (toxic dose/ED50): Max. Dose causing no diarrhea (A) [7]	Therapeutic index (EDmax/ED50), Meth A [8]	diarrhea [9]	Inhibition of tumor growth ([10]; 0.4 mmole/kg/day × 7) [%]	Inhibition of tumor growth ([10]; 0.8 mmole/kg/day × 7) [%]	Inhibition of tumor growth ([10]; 1.5 mmole/kg/day × 7) [%]	Inhibition of tumor growth ([10]; 3.0 mmole/kg/day × 7)
O=c1[nH]cc(F)c(=O)[nH]1 [5-fluorouracil]	cause intestinal toxicities and immunosuppressive toxicities	–	–	–	–	–	–	–	–	–	–	–	–	–	–	–	–
CCCC(=O)Nc1nc(=O)n([C@@H]2O[C@H](C)[C@@H](O)[C@H]2O)cc1F [Example 1, N^4-butyryl-5'-deoxy-5-fluorocytidine]	–	2.3	> 2000	56	83	50	72	4.8	11.3	10.7	> 13	2.0	–	–	–	–	–
C[C@H]1O[C@@H](n2cc(F)c(=O)[nH]c2=O)[C@H](O)[C@@H]1O [5'-deoxy-5-fluorouridine, reference compound]	–	2.4	–	–	–	–	–	1.6	5-10	5-10	5	1.1	diarrhea, which is the dose limiting factor	34	31	66	toxic
